Data: patent US20230099803A1, “OXAZOLIDINONE FOR TREATMENT OF INFECTIONS WITH MYCOBACTERIUM TUBERCULOSIS” (priority 2017, published 2023)

System: Mycobacterium tuberculosis
Format: cell-based
Settings: 5x and 10x MIC90 of T145, 5 weeks of incubation

For CC(=O)NC[C@H]1CN(c2ccc3c(c2)Oc2ccccc2O3)C(=O)O1 [T145, N-(((S)-3-(dibenzo[b,e][1,4]dioxin-7-yl)-2-oxooxazolidin-5-yl)methyl)acetamide], the “frequency of spontaneous mutants that confer resistance” value was 4.0 × 10^-8.
